# How the values were obtained:
# lung cancer = settings: romidepsin monotherapy, previously treated lung cancer; cited from earlier work
# NSCLC cell lines = settings: cited from earlier work
# histone H3 acetylation = assay: Histone H3 acetylation status in PBMCs; assay type: in vivo, patients; settings: for normalized H3 acetylation values, mean increase: P < 0.01
# [1] = phase 1 monotherapy trial; cited from earlier work
# histone H4 acetylation = assay: Histone H4 acetylation status in PBMCs; assay type: in vivo, patients; settings: for normalized H4 acetylation values, mean increase: P < 0.01
# EGFR pathway components = EGFR pathway components in skin biopsies; assay type: in vivo, patients; settings: romidepsin monotherapy
# [2] = both 8 mg/m^2 and 10 mg/m^2 dose levels, P < 0.001
smiles,measurement,setting,value
C/C=C1\NC(=O)[C@H]2CSSCC/C=C/[C@H](CC(=O)N[C@H](C(C)C)C(=O)N2)OC(=O)[C@H](C(C)C)NC1=O [romidepsin],patients who achieved stable disease,lung cancer,9 of 18
same,maximum tolerated dose of romidepsin,"in combination with erlotinib 150 mg orally daily, Days 1, 8, and 15 every 28 days, IV, with multi-drug antiemetic prophylaxis",8 mg/m^2
same,IC50 against NSCLC cell lines in vitro,NSCLC cell lines,2.25 ng/mL
same,"normalized H3 acetylation values, mean increase",histone H3 acetylation; 8 mg/m^2 cohort,2.10 ± 0.71
same,"normalized H3 acetylation values, mean increase",histone H3 acetylation; 10 mg/m^2 cohort,2.18 ± 1.09
same,effect on H3 histone acetylation,histone H3 acetylation; [2],concomitant increase
same,dose-limiting toxicities,[1],grade 3 thrombocytopenia and fatigue
same,"normalized H4 acetylation values, mean increase",histone H4 acetylation; 8 mg/m^2 cohort,3.20 ± 2.40
same,"normalized H4 acetylation values, mean increase",histone H4 acetylation; 10 mg/m^2 cohort,2.26 ± 0.47
same,effect on H4 histone acetylation,histone H4 acetylation; [2],concomitant increase
same,"effect on expression of EGFR, MAPK, or phospho-MAPK",EGFR pathway components,no discernible effect
same,effect on expression of phosphorylated EGFR,"EGFR pathway components; day 3 pre-erlotinib, P = 0.09",trend toward decreased expression
C#Cc1cccc(Nc2ncnc3cc(OCCOC)c(OCCOC)cc23)c1 [erlotinib],"Acneiform Rash, Possible Relationship to Erlotinib","human, in vivo",Y (7/7)
same,"Acute kidney injury, Possible Relationship to Erlotinib","human, in vivo",Y (1/1)
same,"Anorexia, Possible Relationship to Erlotinib","human, in vivo",Y (9/9)
same,"Diarrhea, Possible Relationship to Erlotinib","human, in vivo",Y (9/11)
same,"Dry Skin, Possible Relationship to Erlotinib","human, in vivo",Y (2/2)
same,"Fatigue, Possible Relationship to Erlotinib","human, in vivo",Y (9/14)
same,"Mouth Blister, Possible Relationship to Erlotinib","human, in vivo",Y (4/4)
same,"Nausea, Possible Relationship to Erlotinib","human, in vivo",Y (4/14)
same,"Vomiting, Possible Relationship to Erlotinib","human, in vivo",Y (5/14)
same,"Weight Loss, Possible Relationship to Erlotinib","human, in vivo",Y (2/3)
same,"↑ Glucose, Possible Relationship to Erlotinib","human, in vivo",Y (1/3)
same,"↓ Hgb/Anemia, Possible Relationship to Erlotinib","human, in vivo",Y (2/5)
same,"Dyspepsia, Possible Relationship to Erlotinib",in vivo,N
same,"Sinus tachycardia, Possible Relationship to Erlotinib",in vivo,N
same,"↓ Potassium, Possible Relationship to Erlotinib",in vivo,N

# Reference: paper PMC5125089 (Lung cancer (Amsterdam, Netherlands), 2015)
